# In patent US10407398B2, “Inhibitors of Pseudomonas aeruginosa LecB” (priority 2015, dated 2019):
# Legend:
# [1] = molecular target: T1, LecBPAO1 (Pseudomonas aeruginosa, UniProt Q9HYN5); experiment: biochemical; assay type: binding
# T1 construct: made in house
# [2] = molecular target: T2, LecBPA14 (Pseudomonas aeruginosa, UniProt A0A0H2ZE85); experiment: biochemical; assay type: binding, Pseudomonas aeruginosa UCBPP-PA14
# Procedure: The measured intensities were reduced by buffer values and fluorescence polarization was calculated. The data were analyzed using BMG Labtech MARS software and/or with Graphpad Prism and fitted according to the four parameter variable slope model. […] A minimum of three independent measurements of triplicates each was performed for every ligand.
# [3] = molecular target: T1, LecBPAO1; experiment: Microcalorimetric assay (ITC) for direct binding
# Procedure: (§1) The temperature of the sample cell was 25° C. The titration was performed with a solution of ligands in the same buffer.
# [4] = molecular target: T2, LecBPA14; experiment: biochemical; assay type: binding, Pseudomonas aeruginosa UCBPP-PA14; remark: listed apart in the source
# Procedure: as §1
# [5] = molecular target: LecB (Pseudomonas aeruginosa, UniProt Q9HYN5); details: background art; cited from earlier work
# Chain of LecB (Q9HYN5 entry or part of it): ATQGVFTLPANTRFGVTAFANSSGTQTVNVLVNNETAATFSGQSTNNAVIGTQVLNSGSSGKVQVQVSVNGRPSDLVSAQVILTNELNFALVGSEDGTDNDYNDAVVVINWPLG
# T2 sequence (A0A0H2ZE85 entry or part of it): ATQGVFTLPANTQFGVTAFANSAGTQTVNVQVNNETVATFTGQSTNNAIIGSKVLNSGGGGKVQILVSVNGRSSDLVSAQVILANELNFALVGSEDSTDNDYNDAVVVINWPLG
# T1 sequence (Q9HYN5 entry or part of it): as the sequence (Q9HYN5 entry or part of it) above
SMILES,IC50 [1] [µM],IC50 [2] [µM],also measured
CCc1ccc(S(=O)(=O)NC[C@H]2OC(C)[C@@H](O)C(O)C2O)s1 (some centres unmarked),4.22 ± 1.13,0.44 ± 0.04,
CC[C@@]1(O)C(C)OCC(O)C1O (some centres unmarked) [drawing 116],,,"Kd [3]: 0.201 ± 0.042 µM; N ([3]; ITC binding stoichiometry, one site binding model, LecBPAO1): 1.03 ± 0.13; ΔG ([3]; ITC, 25° C., LecBPAO1): -9.13 ± 0.129 kcal/mol; ΔH ([3]; ITC, 25° C., LecBPAO1): -12.4 ± 1.09 kcal/mol; −TΔS ([3]; ITC, 25° C., LecBPAO1): 3.2 ± 1.12 kcal/mol; Kd [4]: 0.13 ± 0.049 µM; N ([4]; ITC binding stoichiometry, one site binding model, LecBPA14): 0.96 ± 0.04; ΔG ([4]; ITC, 25° C., LecBPA14): -9.42 ± 0.208 kcal/mol; ΔH ([4]; ITC, 25° C., LecBPA14): -10 ± 0.277 kcal/mol; −TΔS ([4]; ITC, 25° C., LecBPA14): 0.619 ± 0.263 kcal/mol"
CC1O[C@H](CNC(=O)c2cc3ccccc3o2)C(O)C(O)[C@@H]1O (some centres unmarked),10.2 ± 0.86,2.56 ± 0.33,
CC1OCC(O)C(O)(C(F)(F)F)[C@@H]1O (stereo partly drawn) [1-deoxy-3(S)—C-(trifluoromethyl)-L-fucose],> 600,> 300,
CC(=O)NCC[C@@]1(O)C(C)OCC(O)C1O (stereo partly drawn) [1-deoxy-4(R)—C-(ethylacetamide) L-fucose],0.52 ± 0.03,0.18 ± 0.02,
CC1OCC(O)C(O)[C@@]1(O)C1CCCCC1 (stereo partly drawn) [1-deoxy-4(S)—C-(cyclohexyl) L-fucose],2.59 ± 0.09,0.75 ± 0.13,
CC1OCC(O)C(O)[C@@]1(O)CCNS(C)(=O)=O (stereo partly drawn) [1-deoxy-4(R)—C-(ethylmethylsulfonamide) L-fucose],0.44 ± 0.07,0.15 ± 0.02,
"CC(=O)N[C@H]1C(O)O[C@H](CO)[C@@H](O[C@@H]2O[C@@H](C)[C@@H](O)[C@@H](O)[C@@H]2O)[C@@H]1O[C@@H]1O[C@H](CO)[C@H](O)[C@H](O)[C@H]1O (stereo partly drawn) [Lewis^a trisaccharide, α-Fuc1-4((βGal1-3)-GlcNAc]",,,Kd [5]: 0.21 µM
CCCCCC[C@@]1(O)C(C)OCC(O)C1O (stereo partly drawn) [1-deoxy-4(S)—C-(hexyl) L-fucose],0.61 ± 0.09,0.33 ± 0.16,
CC(C)CC[C@@]1(O)C(C)OCC(O)C1O (stereo partly drawn) [1-deoxy-4(S)—C-(isopentyl) L-fucose],0.78 ± 0.09,0.45 ± 0.12,
"CCCC[C@@]1(O)C(C)OCC(O)C1O (stereo partly drawn) [drawing 84, 1-deoxy-4(S)—C-(butyl) L-fucose]",0.65 ± 0.01,0.23 ± 0.03,
CC1OCC(O)C(O)[C@@]1(O)CC#N (stereo partly drawn) [1-deoxy-4(S)—C-(cyanomethyl) L-fucose],1.69 ± 0.15,0.58 ± 0.11,
CC1O[C@H](CNS(=O)(=O)c2ccco2)C(O)C(O)[C@@H]1O (some centres unmarked),3.48 ± 0.75,0.48 ± 0.01,
CC1O[C@H](CNS(=O)(=O)c2ccsc2)C(O)C(O)[C@@H]1O (some centres unmarked),1.85 ± 0.13,0.64 ± 0.27,
Cc1csc(S(=O)(=O)NC[C@H]2OC(C)[C@@H](O)C(O)C2O)c1 (some centres unmarked),2.51 ± 0.54,0.31 ± 0.04,
Cc1cc(S(=O)(=O)NC[C@H]2OC(C)[C@@H](O)C(O)C2O)c(C(F)(F)F)o1 (some centres unmarked),3.88 ± 0.7,0.49 ± 0.11,
CCC1(O)C(O)COC(C)[C@H]1O (stereo partly drawn) [1-deoxy-3(S)—C-(ethyl)-L-fucose],471 ± 104,41.5 ± 9.94,
"CC1OCC(O)C(O)[C@@H]1O (stereo partly drawn) [drawing 74, 1-deoxy-L-fucose, reference compound]",1.55 ± 0.5,0.6 ± 0.14,
CC1O[C@H](CNC(=O)/C=C/c2ccccc2)C(O)C(O)[C@@H]1O (some centres unmarked) [drawing 111],4.21 ± 0.94,2.49 ± 0.2,
CC1O[C@H](CNS(=O)(=O)c2ccn(C)n2)C(O)C(O)[C@@H]1O (some centres unmarked),6.79 ± 1.81,0.7 ± 0.03,
